Measured values published in US20040138231A1, “Pharmaceutical composition which comprise a solid dispersion of a hydroxypropyl-methylcellulose phthalate polymer” (priority 2001, published 2004).
Converted amounts (≈) assume the structure as drawn. Where two headings read alike, the source gives them in different places.

What was measured:
[1] = Solubility Data for Compound 2; format: physicochemical
[2] = Solubility data for Compound 1 and the Antifungal; format: physicochemical
Factor Xa = Factor Xa (Homo sapiens, UniProt P00742); assay: Factor Xa inhibitory activity versus thrombin; format: biochemical; details: at concentrations which do not inhibit, or inhibit to a lesser extent
Sequence of Factor Xa (P00742 235-488 limits assumed): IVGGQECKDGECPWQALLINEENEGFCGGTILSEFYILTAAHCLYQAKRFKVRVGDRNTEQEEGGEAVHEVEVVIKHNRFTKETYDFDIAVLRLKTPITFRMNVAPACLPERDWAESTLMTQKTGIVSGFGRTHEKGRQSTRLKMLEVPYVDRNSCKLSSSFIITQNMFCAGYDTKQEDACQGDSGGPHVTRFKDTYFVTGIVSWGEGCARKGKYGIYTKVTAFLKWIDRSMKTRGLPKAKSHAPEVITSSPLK
Sequence of Factor Xa (P00742 41-179 partner limits assumed): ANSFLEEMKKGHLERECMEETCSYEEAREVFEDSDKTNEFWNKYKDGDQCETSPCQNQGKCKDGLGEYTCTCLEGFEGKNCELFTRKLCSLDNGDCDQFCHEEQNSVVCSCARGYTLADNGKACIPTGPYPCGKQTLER

[3] = comparison compound of Kai T. et al., cited from earlier work

## O=C(c1ccc(-c2ccncc2)cc1)N1CCN(S(=O)(=O)c2cc3cc(Cl)ccc3[nH]2)CC1 [Compound 2, 1-(5-chloroindol-2-ylsulfonyl)-4-[4-(4-pyridyl)benzoyl]piperazine]
[1]; 0.1M hydrochloric acid, pH 1.4, simulated gastric fluid
  solubility: 585 µg/mL (≈ 1220 µM)
[1]; 0.1M sodium hydroxide, pH 12.7
  Stability of sample in solubility test: NR* = no result, sample shows evidence of degradation.
[1]; 0.9% saline, pH 2.5, saline or isotonic
  solubility: 227 µg/mL (≈ 472 µM)
[1]; aqueous buffer, pH 3 citrate buffer, pH 2.9
  solubility: 193 µg/mL (≈ 401 µM)
[1]; aqueous buffer, pH 5 citrate buffer, pH 5.0
  solubility: 3 µg/mL (≈ 6.24 µM)
[1]; aqueous buffer, pH 7 phosphate buffer, pH 7.1
  solubility: < 2 µg/mL
[1]; water, pH 2.6, water
  solubility: 301 µg/mL (≈ 626 µM)

## O=C(c1ccc(-c2ccncc2)cc1)N1CCN(S(=O)(=O)c2ccc3cc(Cl)ccc3c2)CC1 [Compound 1, 1-(6-chloronaphth-2-ylsulfonyl)-4-[4-(4-pyridyl)benzoyl]piperazine]
[2]; main sites of adsorption
  solubility in the duodenum, ileum and colon: low solubility
[2]; stomach pH
  solubility at the acidic pH of the stomach: soluble within the acidic pH of the stomach
[2]; water
  solubility: < 5 µg/mL
Factor Xa
  Factor Xa inhibitory activity relative to thrombin inhibition: possesses Factor Xa inhibitory activity at concentrations which do not inhibit, or which inhibit to a lesser extent, the enzyme thrombin

## CC(C)(Sc1ccc(-n2cncn2)nn1)C(O)(Cn1cncn1)c1ccc(F)cc1F (single isomer, unassigned; (+)) [Antifungal, (+)-2-(2,4-difluorophenyl)-3-methyl-1-(1H-1,2,4-triazol-1-yl)-3-[6-(1H-1,2,4-triazol-1-yl)pyridazin-3-ylthio]butan-2-ol]
[3]; Water
  solubility: 1.2 µg/mL (≈ 2.7 µM)
[3]; pH1.2
  solubility: 3.6 µg/mL (≈ 8.1 µM)
[3]; pH6.8
  solubility: 1.2 µg/mL (≈ 2.7 µM)
